# Laboratory results taken from a melting point compilation (Tetko et al.; mined from patent text by program, amines drawn as free bases though some values may be those of a salt).
row,SMILES,melting point
1,c1cc2[nH]ncc2cc1OC1CCOCC1,151 to 153 °C
2,N#CCCn1cccc1C1=CC(=O)c2ccccc2C1=O,127 to 128 °C
3,C#CC1(OCc2ccccc2F)CCN(C(C)=O)CC1,59 to 62 °C
4,CC(C)(C)OC(=O)C=Cc1ccc(C(=O)C(=C(F)F)c2ccccc2)cc1,88 to 94 °C
5,COC(=O)c1cccc(NC=O)n1,134 to 136 °C
6,C=Cc1cccc(N2CC(CNC(=O)OC(C)(C)C)C2)n1,85 to 87 °C
7,CCCc1c(O)c(C(C)=O)cc2c(=O)cc(C(=O)OC)n(CC)c12,121 to 123 °C
8,COc1ccc(C2(c3ccc(OC)cc3)CN(c3ccc(S(C)(=O)=O)cc3)C(c3ccc(Cl)cc3)=N2)cc1,110 to 113 °C
9,O=C(Nc1cccc2cnccc12)NC1CC2(CCC2)Oc2c(O)cccc21 (configuration not stated),246 to 247 °C
10,CS(=O)(=O)NC(=O)CCn1c2ccc(O)cc2c2c3c(c(-c4ccccc4Cl)cc21)C(=O)NC3=O,290 to 296 °C
11,CCCOc1ccc(N)cc1C1=NC(=O)C2=NN=NC2=N1,225 to 227 °C
12,CCN1c2nc(Cl)ccc2NC(=O)c2cc(CCc3ccncc3)cnc21,194 to 196 °C
13,CC(=O)Oc1ccc(C(Cl)=CC=O)cc1[N+](=O)[O-],128 to 130 °C
14,COc1c(-c2nnc(Cc3ccc(F)cc3)o2)n(C)c2ccccc2c1=O,156 to 157 °C
15,COC(=O)c1ccc(-c2noc(C(F)(F)F)n2)s1,126 to 127 °C
16,CCc1cccc2c3c([nH]c12)C(CC)(CC(=O)OC)OCC3NC(N)=O (configuration not stated),180 °C
17,CC(=O)OCCS(=O)(=O)C(F)(F)C(O)(Cn1cncn1)c1ccc(F)cc1F (configuration not stated),77 to 80 °C
18,Cc1csc(=S)n1OC(=O)c1ccccc1,100 to 102 °C
19,COc1ccc(-n2nc(C(F)F)cc2-c2ccc(S(C)=O)cc2)cc1 (configuration not stated),123 to 124 °C
20,CC(=O)Nc1ccccc1C(=O)C=CN(C)C,90 to 95 °C
21,CCCCn1nc2c(N)nc3ccccc3c2c1CC(C)(C)O,130 °C
22,N#CCCn1c(=N)sc2cc(OC(F)(F)F)ccc21,180 °C
23,CCCC1CCC(C2Cc3c4c(c(F)c(F)c3O2)OCCC4)CC1 (configuration not stated),96 °C
24,CCc1cc(C(=O)O)ccc1C(N)C(=O)O (configuration not stated),189 to 193 °C
25,Cc1cc(=O)oc2nn(Cc3cccc(Cl)c3)c(C)c12,148 to 149 °C
26,CCCC1Nc2ccc(S(=O)(=O)N3CCCCC3)cc2S(=O)(=O)N1 (configuration not stated),147 to 151 °C

row,SMILES,melting point
1,CC(=O)Nc1cc(N)c(F)cc1Cl,176 to 178 °C
2,O=C(c1ccc(F)cc1)N1CCOC(c2nc(-c3ccc(F)cc3)no2)C1 (configuration not stated),116 to 117 °C
3,CN(c1ccncc1)n1cccc1CO,145 to 148 °C
4,O=C(O)c1cccc(-c2nc(-c3ccc(C(F)(F)F)cc3)cs2)c1,230 to 231 °C
5,CCn1c(-c2cc3ccccc3[nH]2)nc(-c2ccncc2)c1-c1ccc(Cl)cc1,279 to 280 °C
6,CCN(CC)CC(O)c1cccc2c(C)c(C)oc12 (configuration not stated),138 to 142 °C
7,C=CCOc1ccc(-c2cc(N)n[nH]2)cc1,158 to 159 °C
8,O=C(Nc1cccnn1)N1CCN(c2ccnc(-c3ccc(F)cc3F)n2)CC1,200 to 201 °C
9,O=[N+]([O-])c1cc(F)ccc1OC1CCC(O)CC1 (configuration not stated),151 °C
10,COc1ccc(-c2nc(-c3ccc(OS(=O)(=O)O)cc3)cs2)cc1OC,248 to 249 °C
11,CCCc1cc(C(=O)OC)ccc1OCCCCCOc1ccc2c(c1CCC)OC(C(=O)OC)CC2 (configuration not stated),63 to 64 °C
12,COc1ccc(C(=O)C=Cc2ccc(OCc3ccccc3)cc2)c(O)c1CC=C(C)C,70 to 71 °C
13,CCCCCC(CC(=O)Nc1cc(CCC(=O)NC)ccc1C(C)(C)C)c1c(OC)cccc1OC (configuration not stated),111 to 112 °C
14,CC1(C)CC(SCc2c(Cl)nn(C(F)F)c2C(F)(F)F)=NO1,89 to 90 °C
15,CNC(=O)n1sc(-c2ccccc2)nc1=O,210 °C
16,Cc1cc(SCC(=O)NCCc2ccccc2)nc(N)n1,114 to 121 °C
17,COC1(OC)SC=C(C)NC1=O,86 to 88 °C
18,CN1C(C)(C)CC(C(O)CNc2nc(Cl)nc(NCC(O)C3CC(C)(C)N(C)C(C)(C)C3)n2)CC1(C)C (configuration not stated),166 to 176 °C
19,Cc1ccc2c(c1)C1(CNC(=O)C1)CC2=O (configuration not stated),188 to 192 °C
20,CC(C)(C)NCC(O)c1cc(Cl)c(N)c(C#N)c1 (configuration not stated),125 to 133 °C
21,COc1ccc(Cc2nc(N3CCOCC3)c3c(C)c(C#N)sc3n2)cc1OC,67 to 70 °C
22,CCN(CC)CCOc1ccc(CCNC(=O)c2ccc(-c3ccc(Cl)cc3)cc2)cc1,178 to 179 °C
23,C#Cc1cccc([C@H]2C[C@H]2NC(=O)Nc2ccc(Cl)cn2)c1 (racemic),148 to 150 °C
24,O=C(O)Cc1c(C(=O)c2ccc(Cl)cc2)[nH]c2ccc(F)cc12,233 to 238 °C
25,O=CNNc1cccc(NC(=S)Nc2ccccc2)c1,143 to 145 °C

# The next lines start with the values.
row,melting point,SMILES
1,127 to 128 °C,COc1ccc(C(=O)Nc2ccccc2C(C)(O)c2ccccn2)cc1 (configuration not stated)
2,162 to 163 °C,CNC(=O)c1cccnc1CC(=O)c1ccc(Cl)cc1
3,113 to 114 °C,CC1=C(C)C(=O)C(C(CCCCCCC(=O)O)c2cccnc2)=C(C)C1=O (configuration not stated)
4,142 to 145 °C,CC(=O)Oc1ccc(-n2nc(C(F)(F)F)cc2-c2ccc(S(C)(=O)=O)cc2)cc1
5,126 to 128 °C,CC(=O)NC1Cc2ccccc2C1
6,109 to 110 °C,CCOC(=O)c1c(-c2ccc(OC)c(OC)c2)c2cc(C)ccc2n(C)c1=O
7,106 to 108 °C,CCOC(=O)c1ccc(OCCCN2C(=O)c3ccccc3C2=O)cc1
8,140 to 141 °C,O=S(=O)(c1c(F)c(F)c(F)c(F)c1F)N1CCCC(c2ccc(F)cc2)=N1
9,202 to 203 °C,Cc1c(C)c2ccc(CCCCCN3CCN(c4cccc(Cl)c4Cl)CC3)nc2[nH]c1=O
10,156 to 158 °C,CC(C)(C)OC(=O)COc1ccc(C(=O)NNC(=O)c2ccc(CNC(=O)OC(C)(C)C)cc2)cc1OCC(=O)OC(C)(C)C
11,110 to 112 °C,C[C@@H](c1ccc(-c2ncc(C(=O)N(C)C)s2)cc1)N1CC[C@](CC(C)(C)O)(c2ccccc2)OC1=O
12,158 to 160 °C,CN1C(=O)c2cccnc2N(C)c2nc(-c3ccc[nH]3)ccc21
13,131 °C,O=C(Cc1ccc(Br)cn1)Nc1ccccn1
14,141 °C,Nc1ccc(OCC(O)CO)c(O)c1 (configuration not stated)
15,84 to 85 °C,O=C(OC1CCCCC1=O)c1ccc(Cl)cc1 (configuration not stated)
16,98 °C,CC(C)(C)OC(=O)N1CCCN(c2ccc([N+](=O)[O-])cc2C#N)CC1
17,274 to 279 °C,CSC(=S)NN=Cc1c[nH]c(C)n1
18,112 °C,ClCCCn1c(Cc2ccccc2)nc2ccccc21
19,147 to 150 °C,C1COCCOCCNCCOCC2(COCCN1)COC2
20,89 to 91 °C,COC(=O)c1ccc(OCCNC(=O)c2ccc(C(C)C)cc2)cc1
21,110 to 115 °C,CCc1nc2cc(S(N)(=O)=O)c(Cl)cc2n1-c1ccc(CCOC(=O)NS(=O)(=O)c2ccc(C)cc2)cc1
22,68 to 70 °C,Fc1cccc(Cl)c1-c1nc(F)n(-c2ccccc2C(F)(F)F)n1
23,148 to 149 °C,CCOC(=O)C(C#N)=C1CC(C)(C)c2cc(OC)c(OC)cc21
24,129 to 130 °C,COc1cc2c(c(-c3cccc(C)c3C)c1)OC(CN)C2 (configuration not stated)
25,206 °C,CCc1cc(-c2cc(-c3ccc(C(=O)O)cc3)ccc2OCCO)ccc1N(CC)CC
26,255 to 257 °C,CN1C(C(=O)Nc2nc3c(s2)CCCC3)=C(O)c2ccc3ccccc3c2S1(=O)=O

row,melting point,SMILES
1,175 °C,O=S1(=O)c2cccc3cccc(c23)N1CCCN1CCN(c2cccc(O)c2)CC1
2,180 °C,CCN(CC)C(=O)c1ccc(-c2nc(=O)c3ccccc3s2)cc1
3,147 to 150 °C,FC(F)(F)c1ccc(Oc2ccc(CCNc3ncnc4nccnc34)cc2)nc1
4,135 to 141 °C,Cc1ccccc1C(=O)Nc1ccc(C(=O)Cl)cc1
5,172 °C,CC(O)c1c(NC(=O)C(C)(C)C)cccc1C(F)(F)F (configuration not stated)
6,273 to 274 °C,Cc1c(C(=O)O)cnn1-c1nc(-c2ccc(C(F)(F)F)cc2)cs1
7,150 to 151 °C,O=[N+]([O-])c1cccc(-c2nnc(NCc3cccc4ccccc34)s2)c1
8,94 to 95 °C,CCOC(=O)C(O)=Cc1cc(CCc2ccccc2)cnn1
9,200 °C,Oc1nc(C2CC2)ncc1Br
10,308 to 310 °C,O=C1CCC(n2cnc3cccc(Cl)c3c2=O)C(=O)N1 (configuration not stated)
11,> 230 °C,O=c1[nH]c2c(n(O)c1=O)C1=C(CCC(n3ccc(CN4CCN(c5ccc([N+](=O)[O-])cc5)CC4)c3)=C1)CC2
12,154 °C,CCSC(c1ccc(Cl)cc1)C(C(=O)C(C)(C)C)n1cncn1 (configuration not stated)
13,158 to 159 °C,O=C(O)c1ccccc1C=Cc1ccccc1
14,100 to 102 °C,OC1CCCN(CC(O)COc2ccc(-c3ccc(F)cc3)cc2)C1 (configuration not stated)
15,132 to 133 °C,Cc1c(C)c2c(c(C)c1N)C(c1ccc(C(C)C)cc1)C1(CCCC1)O2 (configuration not stated)
16,88 °C,O=c1oc(-c2cccc(-c3ccccc3)c2)cc(O)c1Sc1ccccc1CC1CC1
17,172 to 175 °C,Cc1ccc2cccc(OCc3c(Cl)ccc(S(=O)(=O)N(CCCCN(C(=O)OC(C)(C)C)C(=O)OC(C)(C)C)C(C)(C)C)c3Cl)c2n1
18,86 to 87 °C,C=C1C(=O)c2ccccc2OC1c1ccc(Cl)cc1Cl (configuration not stated)
19,76 to 78 °C,Clc1ccc(CC2(c3cccnc3)OCCO2)c(Cl)c1
20,108 to 110 °C,O=C(Cc1ccc(OCc2ccc(F)cc2)cc1)NC1(c2nn[nH]n2)Cc2ccc(-c3ccc(Cl)cc3)cc2C1 (configuration not stated)
21,62 to 67 °C,c1ccc(-c2ccccc2OCCCCOc2ccccc2-c2ccccc2)cc1
22,204 to 207 °C,O=C1OC(=O)c2c(Cl)c(Sc3ccccc3)c(Sc3ccccc3)c(Cl)c21
23,195 to 196 °C,COc1ccc2c(c1)CCC2=NNS(=O)(=O)c1ccc(C)cc1
24,210 °C,CC(C)(C)C1=NCC(O)CN1 (configuration not stated)
25,152 to 153 °C,COc1cc(COc2nn(-c3ccccc3)cc2/C=C/P(=O)(OC(C)C)OC(C)C)ccc1OCc1nc(-c2ccco2)oc1C
